The record followed here is patent publication US9221822B2, “Thiazolopyrimidine modulators as immunosuppressive agents” (Katholieke Universiteit Leuven, K.U.Leuven R&D, priority 2009, dated 2015).

pIC50: −log10 of the molar value.

The assay relates to Human peripheral blood mononuclear cells (PBMCs) as Responder cells, RPMI 1788 Stimulator cells. In words: Mixed Lymphocyte Reaction (MLR) test. The format is cell-based. The following applies: 6 days coculture, 3H-thymidine incorporation. The method, then:
Human peripheral blood mononuclear cells (PBMCs) were isolated from buffy coats, obtained from healthy blood donors by Ficoll (Lymphoprep, Axis-Shield PoC AS, Oslo, Norway) density-gradient centrifugation. The cells at the Ficoll-plasma interface were washed three times and used as “Responder” cells. RPMI 1788 (ATCC, N^o CCL-156) cells were treated with mitomycin C (Kyowa, Nycomed, Brussel, Belgium) and used as “Stimulator” cells. Responder cells (0.12×10^6), Stimulator cells (0.045×10^6) and compounds (in different concentrations) were cocultured for 6 days in RPMI 1640 medium (BioWhittaker, Lonza, Belgium) supplemented with 10% fetal calf serum, 100 U/ml Geneticin (Gibco, LifeTechnologies, UK). Cells were cultured in triplicate in flat-bottomed 96-well microtiter tissue culture plates (TTP, Switzerland). After 5 days, cells were pulsed with 1 μCi of methyl-^3H thymidine (MP Biomedicals, USA), harvested 18 h later on glass filter paper and counted. Proliferation values were expressed as counts per minute (cpm), and converted to % inhibition with respect to a blank MLR test (identical but without added compound). […]

The mark [1] stands for this setting: Homo sapiens, RPMI-1788, lowest concentration giving 50% inhibition of the MLR.
The mark [2] stands for this setting: lowest concentration giving 50% inhibition of the MLR.

A word on the pIC50: it is −log10 of the IC50, conventionally taken in molar units. Higher therefore signals a small IC50. Take `Cc1cccc(OCC(=O)N2CCN(c3nc(N)nc4sc(-c5ccc(F)cc5)nc34)CC2)c1` [Example 211, 1-(4-(5-amino-2-(4-fluorophenyl)thiazolo[5,4-d]pyrimidin-7-yl)piperazin-1-yl)-2-(m-tolyloxy)ethanone]: the pIC50 under setting [1] was 7.28.
Consider `Nc1nc(N2CCN(C(=O)OCc3ccccc3)CC2)c2nc(-c3ccc(F)cc3)sc2n1` [Example 40, benzyl-4-(5-amino-2-(4-fluorophenyl)thiazolo[5,4-d]pyrimidin-7-yl)piperazine-1-carboxylate], for which the pIC50 under setting [1] was 5.31.
`COc1ccc(OCC(=O)N2CCN(c3nc(N)nc4sc(-c5ccc(C)cc5)nc34)CC2)cc1` [Example 294, 1-(4-(5-amino-2-p-tolylthiazolo[5,4-d]pyrimidin-7-yl)piperazin-1-yl)-2-(4-methoxyphenoxy)ethanone]: under setting [1], the negative logarithm of the IC50 (pIC50) is 6.12.
On the same count and under the same terms, with `Nc1nc(N2CCN(C(=O)COc3ccc(Cl)cc3)CC2)c2nc(Cc3ccc(F)cc3)sc2n1` [Example 46, 1-(4-(5-amino-2-(4-fluorobenzyl)thiazolo[5,4-d]pyrimidin-7-yl)piperazin-1-yl)-2-(4-chlorophenoxy)ethanone] the figure was 6.15; with `Nc1nc(N2CCN(CC(=O)N3CCOCC3)CC2)c2nc(-c3ccc(F)cc3)[nH]c2n1` [Example 411, 2-(4-(2-amino-8-(4-fluorophenyl)-9H-purin-6-yl)piperazin-1-yl)-1-morpholinoethanone], less than 5.00; with `CCCCCc1nc2c(N3CCN(C(=O)COc4ccc(Cl)cc4)CC3)nc(N)nc2o1` [Example 188, 5-amino-7-[4-(4-chlorophenoxyacetyl)piperazin-1-yl]-2-pentyloxazolo[5,4-d]pyrimidine], 5.35.
Still for that read-out and setting: with `Nc1nc(N2CCN(C(=O)COc3ccc(Br)cc3)CC2)c2cc(-c3ccccc3)sc2n1` [Example 372, 1-(4-(2-amino-6-phenylthieno[2,3-d]pyrimidin-4-yl)piperazin-1-yl)-2-(4-bromophenoxy)ethanone] the figure was 6.49.
As to `Nc1nc(N2CCN(C(=O)COc3ccc(Cl)cc3)CC2)c2nc(-c3ccccc3)sc2n1` [Example 215, 1-(4-(5-amino-2-phenylthiazolo[5,4-d]pyrimidin-7-yl)piperazin-1-yl)-2-(4-chlorophenoxy)ethanone], the pIC50 under setting [1] was 6.94.
Same read-out and setting: with `CCCCCN1CCN(c2nc(N)nc3sc(-c4ccc(F)cc4)nc23)CC1` [Example 37, 2-(4-fluorophenyl)-7-(4-pentylpiperazin-1-yl)thiazolo[5,4-d]pyrimidin-5-amine] the figure was less than 5.00; with `COc1ccc(OCC(=O)N2CCN(c3nc(N)nc4sc(-c5ccccc5)nc34)CC2)cc1` [Example 208, 1-(4-(5-amino-2-phenylthiazolo[5,4-d]pyrimidin-7-yl)piperazin-1-yl)-2-(4-methoxyphenoxy)ethanone], 7.38.
In the case of `COCCCNc1nc(N)nc2sc(-c3ccc(F)cc3)nc12` [Example 32, 2-(4-fluorophenyl)-N-7-(3-methoxypropyl)thiazolo[5,4-d]pyrimidine-5,7-diamine], the pIC50 under setting [2] is less than 5.00.
On the same count and under the same terms, the result for `Nc1nc(N2CCN(C(=O)COc3ccc(Cl)cc3)CC2)c2nc(-c3ccc[n+]([O-])c3)sc2n1` [Example 121b, 5-amino-7-[4-(4-chlorophenoxyacetyl)piperazin-1-yl]-2-(N-oxopyridine-3-yl)thiazolo[5,4-d]pyrimidine] reads 6.08.
`COc1ccc(OCC(=O)N2CCN(c3nc(N)nc4sc(CCc5ccc(OC)c(OC)c5)nc34)CC2)cc1` [Example 257, 1-(4-(5-amino-2-(3,4-dimethoxyphenethyl)thiazolo[5,4-d]pyrimidin-7-yl)piperazin-1-yl)-2-(4-methoxyphenoxy)ethanone]: the pIC50 under setting [1] is 5.94.
On the same count and under the same terms, the result for `Cc1cc(Cl)ccc1OCC(=O)N1CCN(c2nc(N)nc3sc(-c4ccc(F)cc4)nc23)CC1` [Example 213, 1-(4-(5-amino-2-(4-fluorophenyl)thiazolo[5,4-d]pyrimidin-7-yl)piperazin-1-yl)-2-(4-chloro-2-methylphenoxy)ethanone] reads 6.66.
The molecule `Cc1cccc(NC(=O)N2CCN(c3nc(N)nc4sc(-c5ccc(F)cc5)cc34)CC2)c1` [Example 359, 4-(2-amino-6-(4-fluorophenyl)thieno[2,3-d]pyrimidin-4-yl)-N-m-tolylpiperazine-1-carboxamide] showed a pIC50 under setting [1] of 5.55.
On to `CCOc1nc(N)nc2sc(Cc3ccc(F)cc3)nc12` [Example 31, 7-ethoxy-2-(4-fluorobenzyl)thiazolo[5,4-d]pyrimidin-5-amine], for which, under setting [1], the pIC50 was 5.01. This pIC50 lies 0.54 log units lower than the previous one.
For `COc1ccc(-c2nc3c(N4CCN(C(=O)COc5ccc(Cl)cc5)CC4)nc(N)nc3[nH]2)cc1OC` [Example 390, 1-(4-(2-amino-8-(3,4-dimethoxyphenyl)-9H-purin-6-yl)piperazin-1-yl)-2-(4-chlorophenoxy)ethanone], the pIC50 under setting [1] is 6.28.
Still for that read-out and setting: with `Nc1nc(N2CCN(C(=O)CCc3ccccc3)CC2)c2cc(-c3ccc(F)cc3)sc2n1` [Example 343, 1-(4-(2-amino-6-(4-fluorophenyl)thieno[2,3-d]pyrimidin-4-yl)piperazin-1-yl)-3-phenylpropan-1-one] the figure was 5.16; with `Nc1nc(N2CCN(C(=O)COc3ccc(Cl)cc3)CC2)c2nc(-c3ccc(Cl)cc3)sc2n1` [Example 123, 5-amino-7-[4-(4-chlorophenoxyacetyl)piperazin-1-yl]-2-(4-chlorophenyl)thiazolo[5,4-d]pyrimidine], 6.59; with `Nc1nc(N2CCN(C(=O)COc3ccc(Cl)cc3)CC2)c2nc(C(c3ccc(F)cc3)C3CCCC3)sc2n1` (centres unmarked) [Example 151, 5-amino-2-[cyclopentyl-(4-fluorophenyl)methyl]-7-(4-[2-(4-chlorophenoxy)acetyl]piperazin-1-yl)thiazolo[5,4-d]pyrimidine], less than 5.00.
The same measure, in the same setting: with `Cc1cccc(OCC(=O)N2CCN(c3nc(N)nc4sc(-c5ccco5)nc34)CC2)c1` [Example 210, 1-(4-(5-amino-2-(furan-2-yl)thiazolo[5,4-d]pyrimidin-7-yl)piperazin-1-yl)-2-(m-tolyloxy)ethanone] the figure was 7.14; with `Nc1nc(N2CCN(C(=O)COc3ccc(Cl)cc3)CC2)c2nc(CCc3ccccc3)sc2n1` [Example 118, 5-amino-7-[4-(4-chlorophenoxyacetyl)piperazin-1-yl]-2-(2-phenylethyl)thiazolo[5,4-d]pyrimidine], 6.07; with `Nc1nc(N2CCN(C(=O)COc3ccccc3)CC2)c2nc(-c3ccc(F)cc3)sc2n1` [Example 130, 5-amino-2-(4-fluorophenyl)-7-(4-(2-phenoxyacetyl)-piperazin-1-yl)-thiazolo[5,4-d]pyrimidine], 6.46.
`CN(C(=O)CN1CCN(c2nc(N)nc3oc(CCc4ccc(F)cc4)nc23)CC1)c1ccccc1` [Example 198, 5-amino-2-[2-(4-fluorophenyl)ethyl]-7-(4-[(methylphenyl-carbamoyl)methyl]piperazin-1-yl)-oxazolo[5,4-d]pyrimidine] gave a pIC50 under setting [1] of less than 5.00.
For `Nc1nc(NCc2ccccc2)c2cc(-c3ccc(F)cc3)sc2n1` [Example 327, 2-amino-4-N-benzylamino-6-(4-fluorophenyl)-thieno[2,3-d]pyrimidine], the pIC50 under setting [2] was 5.17.
As for `COc1ccc(OCC(=O)N2CCN(c3ncnc4sc(-c5ccc(F)cc5)nc34)CC2)cc1` [Example 300, 1-(4-(2-(4-fluorophenyl)thiazolo[5,4-d]pyrimidin-7-yl)piperazin-1-yl)-2-(4-methoxyphenoxy)ethanone], the pIC50 under setting [1] was 5.26.
Same read-out and setting: the result for `Cc1cccc(N2CCN(c3nc(N)nc4sc(-c5ccc(F)cc5)nc34)CC2)c1` [Example 35, 2-(4-fluorophenyl)-7-(4-m-tolylpiperazin-1-yl)-thiazolo[5,4-d]pyrimidin-5-amine] reads less than 5.00; that for `Nc1nc(N2CCN(C(=O)COc3ccc(Cl)cc3)CC2)c2cc(-c3ccc(F)cc3)sc2n1` [Example 326, 1-(4-(2-amino-6-(4-fluorophenyl)thieno[2,3-d]pyrimidin-4-yl)piperazin-1-yl)-2-(4-chlorophenoxy)ethanone], 6.15; that for `Nc1nc(N2CCN(C(=O)COc3ccc(Cl)cc3)CC2)c2nc(-c3ccc(F)cc3)oc2n1` [Example 169, 1-(4-(5-amino-2-(4-fluorophenyl)oxazolo[5,4-d]pyrimidin-7-yl)piperazin-1-yl)-2-(4-chlorophenoxy)ethanone], 5.52.
Molecule `Nc1nc(N2CCN(C(=O)COc3ccccc3)CC2)c2nc(-c3ccc(F)cc3)[nH]c2n1` [Example 401, 1-(4-(2-amino-8-(4-fluorophenyl)-9H-purin-6-yl)piperazin-1-yl)-2-phenoxyethanone] showed a pIC50 under setting [1] of 5.96.
Take `COCc1nc2c(N3CCN(C(=O)COc4ccc(Cl)cc4)CC3)nc(N)nc2o1` [Example 186, 5-amino-7-[4-(4-chlorophenoxyacetyl)piperazin-1-yl]-2-methoxylmethyloxazolo[5,4-d]pyrimidine]: the pIC50 under setting [1] is 5.74. This pIC50 lies 0.22 log units lower than the previous one.
`Nc1nc(N2CCN(C(=O)COc3ccc(Cl)cc3)CC2)c2nc(-c3ccc(Cl)cc3)[nH]c2n1` [Example 392, 1-(4-(2-amino-8-(4-chlorophenyl)-9H-purin-6-yl)piperazin-1-yl)-2-(4-chlorophenoxy)ethanone] gave a pIC50 under setting [1] of 6.27.
